Laboratory results published in patent US20260209201A1, “TRISULFIDE COMPOUND AND CLATHRATE THEREOF” (Kyowa Pharma Chemical Co., Ltd., priority 2022, published 2026).

Test: Thermal stability test (Test Example 1): heating at 100° C. for 5 hours, residual rate by HPLC
Assay type: physicochemical
Conditions: heated at 100° C.; for residual rate: amount before heating set at 100%
Experimental: The thermal stability of (R)-α-lipoic acid, (R)-lipoic acid trisulfide, and compound (12-1) was evaluated as follows. Each compound was placed in a round-bottom flask and heated at 100° C. for 5 hours. Every hour, a sample was taken from the flask, dissolved in a methylene chloride/methanol mixture (1:1), and subjected to HPLC. The residual rate over time was calculated from the area values of each component.
In FIG. 1, the residual rate on the vertical axis was calculated from the degree of decomposition over time for each sample, with the amount before heating set at 100%. […] In addition, (R)-α-lipoic acid and (R)-lipoic acid trisulfide melted immediately after the start of heating, and insoluble by-products were formed. […] This is presumed to be due to the high melting point of compound (12-1) and suppression of intermolecular polymerization. From the above, it was confirmed that the compound or salt represented by Formula (1) has higher thermal stability than (R)-α-lipoic acid and (R)-lipoic acid trisulfide.

Row | Compound | residual rate (after 5 hours) | decomposition (at 2 hours) | residual rate (at 1 hour)
1 | O=C(O)CCCC[C@@H]1CCSSS1 [(R)-lipoic acid trisulfide] | about 70% | no decomposition | –
2 | O=C(O)CCCC[C@@H]1CCSS1 [(R)-α-lipoic acid] | about 50% | – | below 60%
3 | O=C(CCCC[C@@H]1CCSSS1)N1CCN(C(=O)CCCC[C@@H]2CCSSS2)CC1 [Compound (12-1)] | ≥ 95% | – | –
